Data as given in PubChem BioAssay AID2060623 (Molecular Pharmacology Branch, DTP, NCI, 2025).
pIC50: −log10 of the molar value. Where “and” joins values, the source holds several entries; their conditions need not be identical. Identical values can stand only once.

System: 227483-062-R1-J1-PDC complex spheroids with HUVEC/MSC, viability
Assay: Anticancer human tumor 227483-062-R1-J1-PDC patient-derived pancreatic carcinoma cell line growth inhibition [CLK]
Conditions: for viability, T/C: stronger effect = lower value; for pIC50: curve of compound
Excerpt: A high-throughput screen of multi-cell type tumor spheroids was designed to identify active combinations of […] and targeted small molecules. Complex spheroids include a stromal component modeled by human endothelial cells (HUVEC) and fibroblasts modeled by human mesenchymal stem cells (MSCs). The concentration ranges selected for each drug and investigational agent were based upon clinically achievable concentrations if the clinical Cmax of the agent was known.
Compounds. The drugs and investigational agents: cirtuvivint (SM08502; NSC835563), CC-671 (NSC850746), vemurafenib (NSC761431), tapotoclax (NSC804041), sotorasib (NSC818433), adagrasib (NSC831453), MRTX-1133 (NSC836407), BAY2416964 (NSC825713), copanlisib (NSC816437), inavolisib (NSC800729), abemaciclib (NSC768073), osimertinib (NSC779217), entinostat (NSC756642), eltanexor (KPT-8602, NSC794443), venetoclax (NSC766270), ceralasertib (NSC777638), bortezomib (NSC756655), olaparib (NSC753686), talazoparib (NSC767125), alisertib (NSC759677), peposertib (NSC802822), gemcitabine (NSC613327), 5-fluorouracil (NSC19893), SN-38 (NSC673596), oxaliplatin (NSC266046), paclitaxel (NSC125973), and doxorubicin (NSC123127), were obtained from the National Cancer Institute (NCI) Developmental Therapeutics Program Chemical Repository. The FDA-approved anticancer drug set is available from the Developmental Therapeutics Program at https://dtp.cancer.gov/organization/dscb/obtaining/available plates.htm. […] The stock solutions were prepared in dimethyl sulfoxide (DMSO, Sigma-Aldrich, St. Louis, MO, cat. D2650), except for the platinum complexes which were prepared in saline (Quality Biological, Gaithersburg, MD, cat. 114-055-101), at 800-fold the tested concentration and stored at -70 degrees C prior to their use. All drugs and investigational agents were tested over a range starting from a high concentration at or near the clinical Cmax and decreasing in half-log increments. If the clinical Cmax for an agent had not been determined, the highest concentration tested was 10 microM.
Cell Culture. All cells were maintained in an incubator at 37 degrees C and 5% CO2 with 95% humidity. The PDC lines were cultured according to standard operating procedures established by the NCI PDMR. Briefly, all PDCs were thawed and cultured in Matrigel-coated flasks prepared with a working solution of 1X Ham's F-12 nutrient mix, without supplementation (Invitrogen, Waltham, MA, cat. 11765054), 100 U/mL penicillin-streptomycin (Invitrogen, cat. 15140122), and 2.5% Matrigel (Corning Inc., Corning, NY, cat. 354248) for the first three passages. The 947758-054-R-J2-PDC line was cultured in 6B/Colon 1A media, which includes advanced DMEM/F-12 (Thermo Fisher Scientific, cat. 12634028), 10 mM HEPES (Thermo Fisher Scientific, cat. 15630080), 1X GlutaMAX supplement (Thermo Fisher Scientific, cat. 35050061), 0.1 mg/mL primocin (InvivoGen, cat. ant-pm-2), 10% defined fetal bovine serum, heat inactivated (HyClone Laboratories Inc., cat. SH30070.03HI), 1.25 mM N-Acetyl-L-cysteine (Sigma-Aldrich, cat. A9165), 10 mM nicotinamide (Sigma-Aldrich, cat. N0636), 1X B-27 supplement (Thermo Fisher Scientific, cat. 17504044), 1X N-2 supplement (Thermo Fisher Scientific, cat. 17502048), and 10 microM Y-27632 dihydrochloride (Tocris Bioscience, cat. 1254). The 876862-298-R-J1-PDC was cultured in 6E media, which includes all 6B/Colon 1A media components plus 50% L-WRN conditioned media (ATCC, cat. CRL-3276), 50 ng/mL recombinant human EGF recombinant protein (hEGF; Thermo Fisher Scientific, cat. PHG0311), 10 ng/mL recombinant human fibroblast growth factor 10 (hGFG-10; PeproTech, cat. 100-26), 1 ng/mL recombinant human fibroblast growth factor 2 (hFGF-2; PeproTech, cat. 100-18B), and 1 µM prostaglandin E2 (PGE2; Tocris, cat. 2296). The 227483-062-R1-J1-PDC line was cultured in Panc media, containing all 6E components except hFGF-2, with the addition of 500 nM SB-431542 (Selleckchem, cat. S1067) and 10 nM gastrin (Tocris, cat. 3006). […]
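Note: spheroids exposed to compounds for seven days before readout.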
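Throughout, for viability, T/C: percent of DMSO vehicle control luminescence as 100% viability.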

| SMILES | viability, T/C (compound 0.0316 µM) | viability, T/C (compound 0.1 µM) | viability, T/C (compound 0.316 µM) | viability, T/C (compound 1 µM) | viability, T/C (compound 3.16 µM) | viability, T/C (compound 10 µM) | pIC50 |
| --- | --- | --- | --- | --- | --- | --- | --- |
| C#Cc1c(F)ccc2cc(O)cc(-c3ncc4c(N5CC6CCC(C5)N6)nc(OCC56CCCN5CC(F)C6)nc4c3F)c12 (stereo not drawn) | 102% and 90.9% | 93.7% and 102% | 120% and 105% | 130% and 104% | 106% and 124% | 98.6% and 78.4% | < 5.00 |
| CC(=O)O[C@H]1C(=O)[C@@]2(C)[C@H]([C@H](OC(=O)c3ccccc3)[C@]3(O)C[C@H](OC(=O)[C@H](O)[C@@H](NC(=O)c4ccccc4)c4ccccc4)C(C)=C1C3(C)C)[C@]1(OC(C)=O)CO[C@@H]1C[C@@H]2O | 37.1% and 25.6% | 28.5% and 24% | 28.2% and 29.5% | 37.5% and 31.8% | 50.2% and 38.9% | 60.8% and 52.3% | > 7.50 |
| CC(CO)NC(=O)c1cc(-c2ccc(Cl)cc2)nn(-c2cnn(C)c2)c1=O (stereo not drawn) | 100% and 88.3% | 106% and 97.9% | 95% and 100% | 113% and 88.8% | 88.7% and 108% | 90.4% and 87% | < 5.00 |
| CC(Nc1ccc2c(c1)OCCn1cc(N3C(=O)OCC3C(F)F)nc1-2)C(N)=O (stereo not drawn) | 89.1% and 95.7% | 104% and 89.6% | 82.3% and 76.5% | 82.4% and 85.9% | 69.8% and 72.3% | 82.9% and 69.1% | < 5.00 |
| CC1(C)CCC(CN2CCN(c3ccc(C(=O)NS(=O)(=O)c4ccc(NCC5CCOCC5)c([N+](=O)[O-])c4)c(Oc4cnc5[nH]ccc5c4)c3)CC2)=C(c2ccc(Cl)cc2)C1 | 92.4% and 103% | 112% and 85.4% | 95.4% and 94.4% | 107% and 104% | 106% and 112% | 13.2% and 9.57% | 5.21 and 5.22 |
| CC1COCCN1c1cc(C2(S(C)(=N)=O)CC2)nc(-c2ccnc3[nH]ccc23)n1 (stereo not drawn) | 98% and 93.4% | 93.6% and 101% | 89.4% and 103% | 110% and 109% | 86.9% and 78.7% | 62.2% and 53.5% | < 5.00 |
| COc1ccc([C@@H](O)c2cc(-c3ncnc4cc(N5CCOCC5)ccc34)c(F)cc2Cl)nn1 | 102% and 90.1% | 101% and 86% | 94.7% and 86.4% | 95.4% and 98.6% | 92.6% and 80.2% | 92.5% and 71% | < 5.00 |
| COc1cccc2c1C(=O)c1c(O)c3c(c(O)c1C2=O)CC(O)(C(=O)CO)CC3OC1CC(N)C(O)C(C)O1 (stereo not drawn) | 90% and 75.6% | 108% and 58% | 54.2% and 42.7% | 34.5% and 24.4% | 7.31% and 2.77% | 8.24% and 9.84% | 6.32 and 6.73 |
| Nc1ccccc1NC(=O)c1ccc(CNC(=O)OCc2cccnc2)cc1 | 102% and 79.6% | 107% and 81.1% | 116% and 94.4% | 121% and 101% | 135% and 104% | 87.6% and 71.5% | < 5.00 |
